The text below walks through data of patent publication US10407488B2, “Therapy for treatment or prevention of conditions associated with bleeding or hypocoagulation” (THE REGENTS OF THE UNIVERSITY OF CALIFORNIA, priority 2013, dated 2019).

In assay [1] the test system is thrombin generation in plasma of patients with congenital FVIII-deficiency and inhibitors. Briefly: Thrombin generation in plasma of patients with congenital FVIII-deficiency and high titer inhibitors, spiked in vitro. Format: biochemical, human. As to conditions: factor alone; five patient samples, BU-titer 41-280. The source says: Normal pooled human plasma and plasma from human FVIII-deficient patients with and without inhibitors (titer specified in Bethesda Units (BU)) was purchased from George King Bio-Medical (Overland Park, Kans., USA). In addition, plasma and clinical information was obtained from two patients with severe FVIII-deficiency (<1% intrinsic FVIII-activity levels) and inhibitors (titers determined in BU by the clinical laboratory using the Nijmegen assay (17) regularly visiting the Hemophilia Treatment Center at the University of California, San Diego (UCSD) after informed consent was obtained. Patient confidentiality safeguards, sample and data acquisition methods were approved by the UCSD Institutional Review Board. Blood was drawn into 3.8% sodium citrate (pH 5.5) at a 9:1 blood/anticoagulant volume ratio, and processed immediately. […]
Endogenous thrombin potential (ETP) assays were performed as described (19). […] In some experiments, 1.25 μg/ml anti-FVIII antibody was added to the plasma and ETP was determined after 1 hour of preincubation. Fluorescence was measured at excitation/emission wavelengths of […] using Gemini EM fluorescent plate reader (Molecular Devices). Fluorescence time course data were converted to nM thrombin as described (20). ETP, defined as the area under the curve (AUC) and the peak height were determined using Origin or GraphPad Prism software.

Assay [2] relates to thrombin generation in normal human plasma with rhAPC. The assay can be described thus: Thrombin generation in normal human plasma in the presence of rhAPC. It counts as biochemical. How it is done: BU titer values for FVIII antibodies added to FVIII-deficient plasma were determined using a modified Nijmegen Bethesda assay (Barrow and Lollar; JTH 2006, 4:2223-2229). Briefly, antibody was serially diluted in HBS with 0.05% Tween 80 and mixed 1:1 with pooled normal plasma that was supplemented with 100 mM Imidazole, pH 7.0. Samples were incubated at 37° C. for 2 hours then assayed by aPTT with APTT XL reagent (Pacific Hemostasis). A standard curve was derived from a serial dilution of normal plasma into FVIII deficient plasma that was also mixed 1:1 with HBST and incubated at 37° C. for 2 hours. Percent FVIII activity was plotted versus mg/ml of antibody and residual activity of 50% was defined as 1 BU/ml. In addition, endogenous thrombin potential (ETP) assays were performed as described (3). Briefly FVa mutants or saline were added to human or murine plasma (George King Bio-Medical; mouse source, 50% v/v) supplemented with […] corn trypsin inhibitor (Haematologic Technologies), 10 mM CaCl2, 10 μM phospholipid vesicles (80% phosphatidylcholine, 20% phosphatidylserine, prepared as described (6), 0.2 pM soluble tissue factor (Innovin®, Dade Behring), and 0.4 mM Z-Gly-Gly-Arg-AMC (thrombin substrate, Bachem) in HBS. After mixing, 100 μL was transferred to a FluoroNunc microtiter plate at 37° C. to monitor fluorescence (excitation at 360 nm/emission at 460 nm; Gemini EM fluorescent plate reader (Molecular Devices)). Fluorescence time course data were converted to nM thrombin as described (7). ETP, defined as the area under the curve, was determined using Prism 5.04 (Graphpad).
(§1) APC-mediated inactivation of FVa was analyzed in ETP assays and aPTT clotting assays. FVa mutants were incubated with equal volumes of either recombinant human APC (Xigris®) or buffer in human and murine Balb/c plasma.

Assay [3] has as its system aPTT clotting time in human plasma. Briefly: aPTT clotting assay in human plasma with rhAPC. It counts as biochemical. Here is the method: as §1
(§2) Plasma (50 μL) was mixed with 50 μL of a PTT reagent (APTT-XL, Pacific Hemostasis) and incubated at 37° C. for 3 minutes in the presence of FVa either with recombinant human APC or buffer. Following addition of 25 μL of 50 mM CaCl2 in HBS, 0.5% BSA, the clotting time was recorded using an ST4 coagulometer (Diagnostica Stago).

Assay [4] relates to aPTT clotting time in murine plasma. The assay can be described thus: aPTT clotting assay in murine plasma with rhAPC. It counts as biochemical, mouse. As to conditions: 5 U/mL FVa variants, APC, ~100 seconds without FVa. How it is done:
as §1, §2

For the next assay, the system named is Balb/c mice. The assay can be described thus: Tail clip bleeding assay, APC-induced bleeding in Balb/c mice. It counts as in vivo, mouse. How it is done: Mice were anesthetized with Isoflurane 3%, placed on temperature controlled heating pads (37° C.), and the distal portion of the tail was cut at 1.5 mm diameter after which the tail was immersed in a predefined volume of 37° C. saline (0.9% NaCl) for 20 minutes. To study effects on bleeding and clot stability, tubes were changed after 10 minutes to collect blood for the first and second 10 minutes separately. Blood loss was determined by the hemoglobin concentration in the saline solution after red cell lysis with 2% acetic acid and measured by absorbance at 490 nm. Using a hemoglobin standard derived from defined blood volumes, blood loss was calculated assuming a hematocrit of 46% and expressed in μL/g body weight. Groups of Balb/c mice were injected intravenously (tail vein) with equal volumes (200 μL) of ^superFVa or saline 2 minutes prior to intravenous injection of rhAPC (Xigris®). Immediately after APC injection tail cut was performed. All agents were diluted in sterile sodium chloride 0.9% for injection (Hospira Inc).

Assay [5] relates to thrombin generation in FVIII-deficient plasma. As to conditions: von Drygalski et al. JTH 2014; cited from earlier work.

For the substance “^superFVa: engineered APC-resistant FVa variant (SEQ ID NO:4): R306Q, R506Q, R679Q, Cys609-Cys1691 disulfide, S2183A, B-domain deleted”, the “effect on ETP and peak height” value in assay [1] is “increased ETP and peak height in all five patient samples”. Also, the “rescue of APC-induced reduction of thrombin generation” value in assay [2] (factor alone, rhAPC, normal human plasma (FIG. 16)) was “corrected thrombin generation to levels to those of normal human plasma”. Moreover, the ETP restored in assay [2] (human plasma, ETP maximally suppressed by APC) was 90-100%. In addition, in assay [2] (human plasma, concentrations where ^superFVa restores), the “effect on thrombin generation suppressed by APC” value is listed as “fully restored thrombin generation”. Further, the aPTT result was “fully corrected the aPTT” in assay [3] (0.05 U/mL FVa variants, 10 nM APC, human plasma, ~100 seconds without FVa) and “fully corrected the aPTT” in assay [4]. Besides, in assay [3] (human plasma with APC), the “lower concentration normalizing the aPTT compared to FVa” value is listed as 100 fold. The mean blood loss amounted to 21 µL/g in the assay on Balb/c mice (^superFVa 5 U/mL 2 minutes prior to APC 1.25 mg/kg, 20 minutes); 9.2 µL/g with Balb/c mice (^superFVa 25 U/mL 2 minutes prior to APC 1.25 mg/kg, 20 minutes); 4.3 µL/g in the assay on Balb/c mice (^superFVa 25 U/mL + APC, first 10 minutes); 4.8 µL/g in the assay with Balb/c mice (^superFVa 25 U/mL + APC, second 10 minutes); 9.2 µL/g in the assay on Balb/c mice (^superFVa iv 3.5 mg/kg 2 min prior to wt APC 1.25 mg/kg). Moreover, in assay [5], the “increase of ETP in human FVIII-deficient plasma” value was “approximately 2 fold”.
